Values quoted from earlier work in US20060039891A1, “Antineoplastic-dendritic polymer drug delivery system” (priority 2001, published 2006).

Legend:
B16F10 S.C. tumor = details: at maximum tolerated dose via I.V. administration
[1] = I.V. administration

Question: Which “response of B16F10 tumor models” value (B16F10 S.C. tumor) does the source give for `N.N.[Cl][Pt][Cl]` [cisplatin, cis-diamminedichloro platinate (II)] here?
Answer: resistant

Question: What about the maximum tolerated dose [1] of the same compound?
Answer: about 1 mg/kg
